Measured values from ChEMBL document CHEMBL1759931, “Potent and selective adenosine A(2A) receptor antagonists: [1,2,4]-triazolo[4,3-c]pyrimidin-3-ones” (Bioorg Med Chem Lett, 2011).

How the values were obtained:
[1] = biological target: Adenosine receptor A2a (Homo sapiens, UniProt P29274); assay: Antagonist activity against human adenosine A2A receptor; format: functional
[2] = organism: Homo sapiens; assay: Ratio of Ki for human adenosine A1 receptor to Ki for human adenosine A2A receptor
[3] = Solubility of the compound at pH 7.4; format: physicochemical; conditions: buffer
[4] = system: Rattus norvegicus; assay: Inhibition of haloperidol -induced catalepsy in rat at 10 mg/kg, po measured after 1 hr; format: functional
[5] = system: Rattus norvegicus; assay: Inhibition of haloperidol -induced catalepsy in rat at 10 mg/kg, po measured after 4 hrs; format: functional
[6] = system: Rattus norvegicus; assay: Intrinsic clearance in rat at 3 mg/kg; format: ADME, organism-based; parameters: dose 3 mg/kg; conditions: in vivo
[7] = AUC in rat at 3 mg/kg by LC-MS analysis; format: ADME, organism-based; parameters: dose 3 mg/kg; conditions: plasma
[8] = Drug uptake in rat brain at 3 mg/kg measured after 6 hrs; format: ADME, organism-based; parameters: dose 3 mg/kg; conditions: read-out: Drug uptake

Adenosine receptor A2a, sequence (P29274 whole entry): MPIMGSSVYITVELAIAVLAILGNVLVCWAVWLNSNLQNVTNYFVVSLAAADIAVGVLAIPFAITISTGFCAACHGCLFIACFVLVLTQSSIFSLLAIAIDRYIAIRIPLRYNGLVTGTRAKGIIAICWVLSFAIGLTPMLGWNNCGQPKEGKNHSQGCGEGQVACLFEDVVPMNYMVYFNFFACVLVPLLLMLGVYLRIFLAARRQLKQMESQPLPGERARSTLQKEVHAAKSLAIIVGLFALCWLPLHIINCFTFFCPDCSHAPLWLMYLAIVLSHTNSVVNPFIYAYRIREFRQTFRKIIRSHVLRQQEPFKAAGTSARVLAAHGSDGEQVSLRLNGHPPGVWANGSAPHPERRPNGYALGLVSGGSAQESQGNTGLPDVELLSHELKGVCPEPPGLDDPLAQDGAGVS

Compound | Ki [1] | Ratio Ki [2] | solubility ([3]; read-out: solubility) | other results
Nc1nc2c(cnn2CCN2CCOCC2)c2nn(CC3CC3)c(=O)n12 | 381 nM | 4 | > 250 µM | –
COCCOc1ccc(N2CCN(CCn3ncc4c3nc(N)n3c(=O)n(Cc5cccc(Cl)c5)nc43)CC2)c(F)c1 | 15.6 nM | 90 | 12 µM | –
CN(C)CCn1ncc2c1nc(N)n1c(=O)n(Cc3ccccc3)nc21 | > 1500 nM | – | > 250 µM | –
COCCOc1ccc(N2CCN(CCn3ncc4c3nc(N)n3nc(-c5ccco5)nc43)CC2)cc1 [PRELADENANT] | – | – | – | inhibition in vivo at 10 mg/kg [4]: 75%; inhibition in vivo at 10 mg/kg [5]: 80%; solubility [3]: < 0.01 µg/mL
CC(C)(C)OC(=O)N1CCN(CCn2ncc3c2nc(N)n2c(=O)n(Cc4ccccc4)nc32)CC1 | > 1300 nM | – | 100 µM | –
COc1ccc(-c2cc3nn(Cc4ccccc4)c(=O)n3c(N)n2)cc1 | 636 nM | 2 | 25 µM | –
Nc1nc(-c2cccnc2)cc2nn(Cc3ccccc3)c(=O)n12 | 791 nM | 2 | 100 µM | –
Nc1nc2c(cnn2CCN2CCC(N3CCOCC3)CC2)c2nn(Cc3ccccc3)c(=O)n12 | 28.4 nM | 53 | – | –
Nc1nc(-c2cccc(CO)c2)cc2nn(Cc3ccccc3)c(=O)n12 | 1700 nM | 1 | 100 µM | –
Nc1nc2c(cnn2CCN2CCN(c3ccc(F)cc3F)CC2)c2nn(Cc3cccc(Cl)c3)c(=O)n12 | 23.4 nM | 60 | – | –
Nc1nc2c(cnn2CCN2CCOCC2)c2nn(Cc3cccc(Cl)c3)c(=O)n12 | 14.2 nM | 99 | 25 µM | –
C=Cn1ncc2c1nc(N)n1c(=O)n(CC3CC3)nc21 | 27.4 nM | 55 | 175 µM | –
Nc1nc2c(cnn2CCN2CCN(c3ccc(F)cc3F)CC2)c2nn(Cc3ccccc3)c(=O)n12 | > 1300 nM | – | – | –
CC(C)(C)OC(=O)N1CCN(CCn2ncc3c2nc(N)n2c(=O)n(Cc4cccc(Cl)c4)nc32)CC1 | 556 nM | 2 | 25 µM | –
CN(C)CCn1ncc2c1nc(N)n1c(=O)n(CC3CC3)nc21 | > 1500 nM | – | > 250 µM | –
COCCOc1ccc(N2CCN(CCn3ncc4c3nc(N)n3c(=O)n(Cc5ccccc5)nc43)CC2)c(F)c1 | > 1300 nM | – | 12 µM | –

Continued, in another order:

Ki [1] | Ratio Ki [2] | solubility ([3]; read-out: solubility) | Compound | other results
8.7 nM | 162 | 75 µM | Nc1nc2c(cnn2CCN2CCC3(CC2)OCCO3)c2nn(Cc3ccccc3)c(=O)n12 | –
9 nM | 156 | 175 µM | Nc1nc2c(cnn2CCN2CCOCC2)c2nn(Cc3ccccc3)c(=O)n12 | –
0.4 nM | 356 | 12 µM | C=Cn1ncc2c1nc(N)n1c(=O)n(Cc3cccc(Cl)c3)nc21 | inhibition in vivo at 10 mg/kg [4]: 13%; inhibition in vivo at 10 mg/kg [5]: 15%; CL [6]: 27.7 mL/min/kg
10.5 nM | 133 | 12 µM | CS(=O)(=O)N1CCN(CCn2ncc3c2nc(N)n2c(=O)n(Cc4cccc(Cl)c4)nc32)CC1 | –
0.3 nM | 1120 | 37 µM | C=Cn1ncc2c1nc(N)n1c(=O)n(Cc3ccccc3)nc21 | inhibition in vivo at 10 mg/kg [4]: 0%; inhibition in vivo at 10 mg/kg [5]: 8%; AUC [7]: 0.248 µM·h; concentration at 6 h [8]: 10 ng/g; CL [6]: 24.4 mL/min/kg
0.5 nM | 43 | – | Nc1nc2c(c3nn(Cc4ccccc4)c(=O)n13)CCc1ccccc1-2 | inhibition in vivo at 10 mg/kg [4]: 0%; inhibition in vivo at 10 mg/kg [5]: 18%; concentration at 6 h [8]: 10 ng/g; CL [6]: 14.7 mL/min/kg
7 nM | 3 | – | Nc1nc(-c2ccccc2)cc2nc(-c3ccco3)nn12 | –
8.9 nM | 157 | 75 µM | CS(=O)(=O)N1CCN(CCn2ncc3c2nc(N)n2c(=O)n(Cc4ccccc4)nc32)CC1 | –
5.2 nM | 269 | 18 µM | CN(C)CCn1ncc2c1nc(N)n1c(=O)n(Cc3cccc(Cl)c3)nc21 | inhibition in vivo at 10 mg/kg [4]: 13%; inhibition in vivo at 10 mg/kg [5]: 20%; AUC [7]: 0.398 µM·h; concentration at 6 h [8]: 39 ng/g; CL [6]: 37.3 mL/min/kg
11 nM | 127 | – | Nc1nc2c(cnn2CCN2CCC3(CC2)OCCO3)c2nn(Cc3cccc(Cl)c3)c(=O)n12 | –
6.7 nM | 224 | – | Nc1nc2c(cnn2CCN2CCC(N3CCOCC3)CC2)c2nn(Cc3cccc(Cl)c3)c(=O)n12 | –
12.7 nM | 110 | 50 µM | Nc1nc2c(cnn2CCN2CCN(c3cnccn3)CC2)c2nn(Cc3ccccc3)c(=O)n12 | –
1 nM | 26 | – | Nc1nc(-c2ccccc2)cc2nn(Cc3ccccc3)c(=O)n12 | –
12.9 nM | 109 | 25 µM | Nc1nc2c(cnn2CCN2CCN(c3cnccn3)CC2)c2nn(Cc3cccc(Cl)c3)c(=O)n12 | –
